Patent publication US20240174618A1, “SUBSTITUTED (2-HETEROARYLOXYPHENYL)SULFONATES, SALTS THEREOF AND THEIR USE AS HERBICIDAL AGENTS” (Bayer Aktiengesellschaft, priority 2021, published 2024)

How the values were obtained:
Assay type in all cases: in vivo
[1] = tested on: Echinochloa crus-galli (ECHCG); experiment: A. Herbicidal pre-emergence efficacy, ECHCG; conditions: scored visually after about 3 weeks vs untreated controls
Summary of the method: (§1)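 Pre-emergence soil-surface spray in sandy loam pots, WP/EC in water plus 0.5% additive, 600 L/ha. Visual % damage rating after about 3 weeks in greenhouse vs. untreated; 0% = control-like, 100% = dead plants. Rates up to 1280 g/ha.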

Kochia scoparia (KCHSC) = experiment: A. Herbicidal pre-emergence efficacy, KCHSC
Summary of the method: as §1

Lolium rigidum (LOLRI) = experiment: A. Herbicidal pre-emergence efficacy, LOLRI
Summary of the method: as §1

[2] = tested on: Matricaria inodora (MATIN); experiment: A. Herbicidal pre-emergence efficacy, MATIN
Summary of the method: as §1

Poa annua (POAAN) = experiment: B. Herbicidal post-emergence efficacy, POAAN
Summary of the method: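 Visual percent efficacy relative to untreated controls (0% unaffected, 100% dead), scored roughly 3 weeks after foliar spraying of one-leaf-stage pot-grown plants with WP or EC preparations at application rates up to 1280 g/ha in 600 L/ha water containing 0.5% additive.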

[3] = tested on: Digitaria sanguinalis (DIGSA); experiment: C. Herbicidal pre-emergence efficacy, DIGSA; conditions: scored after about 3 weeks
Summary of the method: (§2)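 Pre-emergence test: formulated compounds sprayed as aqueous suspension or emulsion with 0.5% additive at 600 l/ha onto soil covering sown seeds, at rates corresponding to 320 g/ha or less. After about 3 weeks in greenhouse, efficacy scored visually as percent versus untreated controls (100% = plants dead).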

Setaria viridis (SETVI) = experiment: C. Herbicidal pre-emergence efficacy, SETVI; conditions: scored after about 3 weeks
Summary of the method: as §2

[4] = tested on: Amaranthus retroflexus (AMARE); experiment: E. Herbicidal post-emergence efficacy, AMARE
Summary of the method: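 Greenhouse weeds were treated post-emergence at the one-leaf stage, 2-3 weeks after sowing in sandy loam, with WP or EC formulations sprayed as aqueous suspension/emulsion plus 0.5% additive at 600 l/ha, at 320 g/ha or less. Efficacy was rated visually after about 3 weeks versus untreated controls (100% = dead, 0% = like control).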

[5] = pre-emergence, dosage 1280 g/ha
[6] = 320 g/ha, scored visually after about 3 weeks vs untreated controls
[7] = 80 g/ha, scored visually after about 3 weeks vs untreated controls

| Compound | Pre-emergence efficacy against ECHCG ([1]; 1280 g/ha) [%] | Pre-emergence efficacy against KCHSC (Kochia scoparia (KCHSC); pre-emergence, dosage 320 g/ha) [%] | Pre-emergence efficacy against KCHSC (Kochia scoparia (KCHSC); [5]) [%] | Pre-emergence efficacy against LOLRI (Lolium rigidum (LOLRI); dosage 1280 g/ha) [%] | Pre-emergence efficacy against MATIN [2, 5] [%] | Post-emergence efficacy against POAAN (Poa annua (POAAN); 80 g/ha) [%] | Post-emergence efficacy against POAAN (Poa annua (POAAN); 320 g/ha) [%] | Post-emergence efficacy against POAAN (Poa annua (POAAN); 1280 g/ha) [%] | Pre-emergence efficacy against DIGSA ([3]; 320 g/ha) [%] | Pre-emergence efficacy against SETVI (Setaria viridis (SETVI); 80 g/ha) [%] | Pre-emergence efficacy against SETVI (Setaria viridis (SETVI); 320 g/ha) [%] | Post-emergence efficacy against AMARE in % ([4]; application rate 80 g/ha) [%] | Post-emergence efficacy against AMARE in % ([4]; application rate 320 g/ha) [%] | Pre-emergence efficacy against ECHCG ([1]; 320 g/ha) [%] | Pre-emergence efficacy against MATIN [2, 6] [%] | Pre-emergence efficacy against DIGSA ([3]; 80 g/ha) [%] | Pre-emergence efficacy against ECHCG ([1]; 80 g/ha) [%] | Pre-emergence efficacy against KCHSC (Kochia scoparia (KCHSC); [7]) [%] | Pre-emergence efficacy against LOLRI (Lolium rigidum (LOLRI); dosage 320 g/ha) [%] |
| --- | --- | --- | --- | --- | --- | --- | --- | --- | --- | --- | --- | --- | --- | --- | --- | --- | --- | --- | --- |
| O=S(=O)(CCC(F)(F)F)Oc1c(Cl)cccc1Oc1ncc(Br)cn1 [Example I-32] | 100 | 90 | 100 | 90 | 90 | 90 | 100 | 100 | 100 | 90 | 100 | 100 | 100 | – | – | – | – | – | – |
| O=S(=O)(CCC(F)(F)F)Oc1c(Cl)cccc1Oc1ncc(Cl)cn1 [Example I-38] | 100 | 100 | 100 | 100 | 100 | – | – | 90 | 100 | 100 | 100 | 100 | 100 | 90 | 100 | 100 | – | – | – |
| O=S(=O)(CCCC(F)(F)F)Oc1ccccc1Oc1ncc(Cl)cn1 [Example I-10] | 100 | 100 | 100 | 90 | 100 | – | – | 90 | 100 | 100 | 100 | 100 | 100 | 100 | 100 | 100 | 100 | 100 | 90 |
| O=S(=O)(CCCC(F)(F)F)Oc1c(F)cccc1Oc1ncc(Br)cn1 [Example I-41] | 100 | 100 | 100 | 100 | 100 | – | 90 | 90 | 100 | 100 | 100 | 100 | 100 | 100 | 100 | 100 | – | 100 | 100 |
| O=S(=O)(CCC(F)(F)F)Oc1c(F)cccc1Oc1ncc(Br)cn1 [Example I-40] | 100 | 100 | 100 | 100 | 100 | – | 90 | 90 | 100 | 100 | 100 | 100 | 100 | 100 | 100 | 100 | 100 | 100 | 100 |
| CCCCS(=O)(=O)Oc1ccccc1Oc1ncc(Cl)cn1 [Example I-6] | 100 | 90 | 100 | 90 | 100 | – | – | 100 | 100 | 90 | 100 | 90 | 100 | 100 | – | 100 | 100 | 90 | 90 |
| O=S(=O)(CCCC(F)F)Oc1c(F)cccc1Oc1ncc(Cl)cn1 [Example I-56] | 100 | 100 | 100 | 100 | 100 | 90 | 90 | 90 | 100 | 100 | 100 | 100 | 100 | 100 | – | 100 | 100 | 100 | 100 |
| O=S(=O)(CCCC(F)(F)C(F)(F)F)Oc1c(F)cccc1Oc1ncc(Cl)cn1 [Example I-68] | 100 | 100 | 100 | 100 | 100 | – | 90 | 100 | 100 | – | 100 | 90 | 100 | 90 | 100 | 100 | – | 90 | – |
| O=S(=O)(CC1CC(F)(F)C1)Oc1c(F)cccc1Oc1ncc(Cl)cn1 [Example I-53] | 100 | 100 | 100 | 100 | 100 | 90 | 90 | 90 | 100 | 100 | 100 | 100 | 100 | 100 | – | 100 | 100 | 100 | 90 |
| O=S(=O)(CCC(F)(F)F)Oc1ccccc1Oc1ncc(Cl)cn1 [Example I-8] | 100 | 100 | 100 | 90 | 100 | – | – | 90 | 100 | 100 | 100 | 100 | 100 | 90 | 90 | 100 | 90 | 100 | 90 |
| O=S(=O)(CC1CC1)Oc1ccccc1Oc1ncc(Cl)cn1 [Example I-23] | 90 | 100 | 100 | 90 | 100 | 90 | 90 | 100 | 100 | 100 | 100 | 100 | 100 | 90 | 90 | 100 | 90 | 90 | 90 |
| C=CCCS(=O)(=O)Oc1c(F)cccc1Oc1ncc(Cl)cn1 [Example I-50] | 100 | 100 | 100 | 90 | 90 | 90 | 90 | 90 | 100 | 100 | 100 | 100 | 100 | 90 | – | 100 | – | 90 | 90 |
| CC(C)CCS(=O)(=O)Oc1ccccc1Oc1ncc(Cl)cn1 [Example I-25] | 100 | 100 | 100 | 100 | 100 | – | 90 | 100 | 100 | 80 | 100 | – | 90 | 100 | – | 100 | – | 90 | 90 |
